Assay results taken from patent US20150297761A1, “PEPTIDIC STRUCTURES INCORPORATING AN AMINO ACID METAL COMPLEX AND APPLICATIONS IN MAGNETIC RESONANCE IMAGING” (THE GENERAL HOSPITAL CORPORATION, priority 2012, published 2015).

Assays:
Type in all cases: physicochemical
[1] = Ligand challenge, equilibrium constant Kcomp of [Gd(DTPA)(H2O)]2− vs. L; settings: calculated from literature thermodynamic data
Procedure: As a means of assessing thermodynamic stability relative to other Gd(III)-complexes, [Gd(CyPic3A)(H2O)2]^− was challenged with DTPA in pH 7.4 25 mM Tris buffer. […] From this information it was possible to deduce equilibrium constants (Kcomp) for the competition reaction described in Equation 5,^31 where L=DTPA and L′=challenging chelator.
Equilibration of each solution was monitored by LC-MS. Relative distributions of [Gd(CyPic3A)(H2O)2]^− and CyPic3A were determined by integrating the corresponding absorbance traces at 280 nm. […] Kcomp values determined between [Gd(DTPA)(H2O)]^2− and various ligands were determined from conditional formation constants (Kcond)^4 values taken from the literature.^6-16 Direct comparisons were only made between Kcond values determined under identical conditions.

[2] = Relaxivity of DOTAlaP derivatives (Example 6)
Procedure: Relaxivity. Longitudinal relaxation times T1, were measured on Bruker Minispecs mq20 (20 MHz) and mq60 (60 MHz) using an inversion recovery method with 10 inversion time values ranging from 0.05×T1 to 5×Ti. Relaxivity was calculated from a linear plot of 3 different concentrations ranging from 0.25 to 1.0 mM versus the corresponding inverse relaxation times. The temperature was adjusted to 37° C.

[3] = Relaxivity before and after disulfide bond reduction with TCEP; settings: for Relaxivity per Gd, TCEP reduced: after TCEP reduction of the disulfide bond; for Relaxivity per Gd, TCEP reduced / Relaxivity per Gd, cyclic / relaxivity r1, cyclic versus linearized (reduced) multimer: 37° C.; for Relaxivity per Gd, cyclic: first value column, before reduction; for relaxivity r1, cyclic versus linearized (reduced) multimer: 1.4 T; for relaxivity after disulfide bond reduction: 20 eq. TCEP 30 minutes, T1 at 37° C., field not stated in the sentence (0.47 and 1.41 T examined)
Procedure: Investigation of the effect of tertiary structure on relaxivity, was done by examination of the effect of disulfide bond reduction on T1 at 0.47 and 1.41 T. T1 was measured for each sample at 37° C. and then the samples were incubated with 20 eq. TCEP for 30 minutes at room temperature to reduce the intramolecular disulfide bond and give the linear peptide. Subsequently, the T1 values were remeasured and concentrations re-determined in order to calculate relaxivities. […] Over all, reduction of the disulfide bond has only a slight effect on relaxivity (FIGS. 16-18 and Table 5).
Reduction of disulfide bond for relaxivity measurements. Complex solutions of purified, cyclic Gd complexes (concentrations of 0.1-0.025 mM, 110 μL) in HEPES buffer (50 mM, pH 7.4) were mixed with TCEP solution (20 mM in HEPES, 10 μL) and incubated room temperature. Reduction was checked by LCMS analysis and found to be complete after 30 minutes.
(§1) Measurement of relaxivity. Longitudinal relaxation times T1, were measured on Bruker Minispecs mq20 (0.47 T) and mq60 (1.41 T), a Bruker Bioscan horizontal bore 4.7 T, 9.4 T and 11.7 T Varian NMR spectrometers. T1 was measured by using an inversion recovery method with 10 inversion time values ranging from 0.05×T1 to 5×T1. Relaxivity was calculated from a linear plot of 3 or 4 different concentrations (ranging from 0.01 to 0.5 mM, depending on amount of compound isolated) versus the corresponding inverse relaxation times. All samples were measured at 37° C. using either the internal temperature control of the instrument (0.47, 1.41, 9.4 and 11.7 T) or a warm air blower (4.7 T). MS-325/HSA was prepared in a 4.5% w/v solution of HSA (0.66 mM) in PBS. The MS-325 concentration (in presence of HSA) ranged from 0.05 to 0.15 mM.

[4] = Relaxivity of Gd(DOTAla) metallopeptides and reference agents (T1 inversion recovery, 37° C.); settings: for Relaxivity per Gd, 400 MHz: 400 MHz (9.4 T); for r1 [0.47 T], per molecule / r1 [1.4 T], per molecule: per molecule (in parentheses)
Procedure: Main numbers are given per Gd, numbers in parentheses are per molecule values. All numbers were determined at 37° C. using an inversion recovery sequence at concentrations ranging from 0.05 to 0.6 mM/Gd. Table 4 in Example 2 further expands the data of Table 1.
Per Gd relaxivities were determined by measuring T1 at 37° C. using 20, 60, 200, 400 and 500 MHz spectrometers. Relaxivities for MS-325 (with and without the presence of HSA) as a reference compound with a long τR and [Gd(HP-DO3A)(H2O)] as a reference for very short τR were also measured, and all the relaxivity data is tabulated in Table 4, together with results obtained from literature for the compounds with similar estimated τR. […] Additional rigidity through cyclization seems to provide only minor relaxivity increase for the dimeric and trimeric systems (Gd2C2 and Gd3C3).
as §1

Compound	Relaxivity per Gd, TCEP reduced [3] [mM⁻¹ s⁻¹]	Relaxivity per Gd, cyclic [3] [mM⁻¹ s⁻¹]	Relaxivity per Gd, 20 MHz [4] [mM⁻¹ s⁻¹]	Relaxivity per Gd, 60 MHz [4] [mM⁻¹ s⁻¹]	Relaxivity per Gd, 200 MHz [4] [mM⁻¹ s⁻¹]	Relaxivity per Gd, 400 MHz [4] [mM⁻¹ s⁻¹]	Relaxivity per Gd, 500 MHz [4] [mM⁻¹ s⁻¹]	r1 [0.47 T], per Gd [4] [mM⁻¹ s⁻¹]	r1 [1.4 T], per Gd [4] [mM⁻¹ s⁻¹]	also measured
CC1(N(CC(=O)O)CC(=O)O)CN(CC(=O)O)CCN(CC(=O)O)C1 [AAZTA]										Kcomp [Gd(DTPA)(H2O)]^2- vs. L pH 4 [1]: 0.091^9; Kcomp, [Gd(DTPA)(H2O)]^2- vs. L pH 7.4 [1]: .001^9
CC(C)Cc1ccc(C(C)C(=O)NCCNC(=O)C(N)CN2CCN(CC(=O)O)CCN(CP(=O)(O)O)CCN(CC(=O)O)CC2)cc1 (stereo not shown) [Gd(5b), 2, 2′-(4-(2-amino-3-((2-(2-(4-isobutylphenyl)propanamido)ethyl)amino)-3-oxopropyl)-10-(phosphonomethyl)-1,4,7,10-tetraazacyclododecane-1,7-diyl)diacetic acid]										r1 (20 MHz, 37° C., mM^−1s^−1) [2]: 3.2 mM⁻¹ s⁻¹; r1 (60 MHz, 37° C., mM^−1s^−1) [2]: 3.0 mM⁻¹ s⁻¹
H2N—C(S^cycl)PG-DOTAla(Gd)-GC(S^cycl)CONH2 [GdC1]	6.4	7.1	8.3	7.1	7.3	5.1	4.5	8.3	6.7	
H2N—C(S^cycl)PG-DOTAla(Gd)-G-DOTAla(Gd)-G-DOTAla(Gd)-GC(S^cycl)CONH2 [Gd3C3]	11.5	12.3	12.7	12.3	9.2	6.6	5.5	13.38	12.86	r1 [0.47 T], per molecule [4]: 40.14 mM⁻¹ s⁻¹; r1 [1.4 T], per molecule [4]: 38.58 mM⁻¹ s⁻¹
H2N—C(SH)PG-DOTAla(Gd)-G-DOTAla(Gd)-GC(SH)CONH2 [Gd2C2-red]										relaxivity r1, cyclic versus linearized (reduced) multimer [3]: 9 mM⁻¹ s⁻¹; relaxivity after disulfide bond reduction [3]: 9 mM⁻¹ s⁻¹
H2N—C(S^cycl)PG-DOTAla(Gd)-G-DOTAla(Gd)-GC(S^cycl)CON H2 [Gd2C2]	9	10.5	11.4	10.6	7.5	5.7	4.5	13.1	12.2	relaxivity r1, cyclic versus linearized (reduced) multimer [3]: 10.5 mM⁻¹ s⁻¹; r1 [0.47 T], per molecule [4]: 26.2 mM⁻¹ s⁻¹; r1 [1.4 T], per molecule [4]: 24.4 mM⁻¹ s⁻¹
O=C(O)CN1CCN(CC(=O)O)Cc2cccc(n2)CN(CC(=O)O)CC1 [PCTA]										Kcomp [Gd(DTPA)(H2O)]^2- vs. L pH 4 [1]: 0.064^10; Kcomp, [Gd(DTPA)(H2O)]^2- vs. L pH 7.4 [1]: 0.019^10
H2N—C(SH)PG-DOTAla(Gd)-G-DOTAla(Gd)-G-DOTAla(Gd)-GC(SH)CONH2 [Gd3C3-red]										relaxivity after disulfide bond reduction [3]: 11.5 mM⁻¹ s⁻¹
2,2′-(4-(2-carboxy-2-((1-(4-isobutylphenyl)ethyl)amino)ethyl)-10-(phosphonomethyl)-1,4,7,10-tetraazacyclododecane-1,7-diyl)diacetic acid [Gd(4b)]										r1 (20 MHz, 37° C., mM^−1s^−1) [2]: 4 mM⁻¹ s⁻¹; r1 (60 MHz, 37° C., mM^−1s^−1) [2]: 3.8 mM⁻¹ s⁻¹
